Legend:
Type in all cases: cell-based, rat
hippocampal (HP) cells = test: Growth supporting effect on neuronal cultures (phase contrast microscopy); conditions: FIG. 1
Method: (§1) For isolation of hippocampal and cortical neurons, two days old rat pups were sacrificed under sterile conditions. Brain samples were carefully isolated and hippocampal and cortical regions were dissected out and placed in ice-cold PBS supplemented with 1% penicillin-streptomycin. Tissue was chopped in small pieces with a sterile scalpel and washed three times with PBS. Subsequently tissues were digested in typsin-EDTA solution (0.05% of trypsin) for 7 minutes at 37° C. and 5% CO2 in a humidified chamber. After typsinisation, cells were washed three times in Dulbecco's Modified Eagle's Medium (DMEM) media containing 5% FBS and finally triturated using flame-polished Pasteur pipette to prepare dissociated cell suspension. The cell suspensions were then centrifuged at 1200 rpm for 4 minutes, supernatants were discarded and cell pellets were re-suspended in 1 mL complete media to find out the cell count and viability. Cells were finally cultured in DMEM (high glucose), supplemented with 10% fetal bovine serum (FBS), 1% L-Glutamine, 1% penicillin/streptomycin (10,000 U/mL and 10 mg/mL, resp.), and 1% sodium pyruvate. The culture flasks (75 cm^2) were then incubated at 37° C. with 5% CO2. Cells were examined daily for any change in morphology or contamination. Media was changed twice or thrice weekly. All cell work was done in a tissue culture hood under sterile conditions.
(§2) To evaluate the growth supporting effect of isoxylitones the hippocampal, cortical and co-cultured cells were plated in 6-well plates and treated with 25 μg/mL, 50 μg/mL, 75 μg/mL and 150 μg/mL doses of isoxylitones. Cells with no treatment were set as a control. The plates were incubated for 24 and 72 hrs in a humidified chamber at 37° C. in 5% CO2. To assess the morphology of the treated cells, images were captured and digitalized with Nikon TE-2000 inverted microscope equipped with phase-contrast optics to measure the difference of control group from treated group. The cells were observed carefully in order to check if they maintain their morphological characteristics after treatment with the compound. The doses which supported the maximum proliferation were used for proliferation assays i.e., AlamarBlue and BrdU assay.

cortical (CTX) cells = test: as above; conditions: cortical cells treated for 24 h, FIG. 1
Method: as §1, §2

Cocul-CTX cells = test: BrdU proliferation ELISA assay; conditions: 150 μg/ml, 24 h, FIG. 6
Method: (§3) Wistar rats (150-200 gm) were used to isolate bone marrow (BM). Rats were sacrificed and their femurs were removed aseptically. The bone marrow (BM) was flushed from the shaft of the bone by clipping of the epiphysial ends and flushing using a 26-gauge needle with ˜2 ml of Dulbecco's Modified Eagle's medium (DMEM) supplemented with 5% FBS, 1% penicillin/streptomycin solution, 1% sodium pyruvate and L-glutamine. The BM was then centrifuged for 8 minutes at 1000 rpm. Following centrifugation, cell pellet was collected and 1 ml of fresh DMEM was added. The cell viability was checked using trypan blue exclusion method. The cells were then divided into three equal parts. One part was co-cultured with freshly isolated hippocampal cells in T75 cm^2 flask, 2nd with freshly isolated cortical cells and the third portion (BM cells only) was cultured as a control. The cell density for co-cultures was set at 140,000 cells/ml for each type of culture. The cultured flasks were then incubated at 37° C. and 5% CO2. After 4-5 days, floating hematopoietic cells and dead debris/tissues of hippocampus and cortex were removed and bone marrow stromal cells (BMSCs) were recovered due to their tendency to adhere. Medium was replaced after every 3 to 4 days till cells became 80-90% confluent. […]

Cocul-HP cells = test: BrdU proliferation ELISA assay; conditions: 24 h, increase reported with 100 and 150 μg/mL, FIG. 6
Method: as §3

[1] = system: co-cultured hippocampal (HP-CoCul) cells; test: Growth supporting effect on co-cultures with BMSCs (phase contrast microscopy); conditions: 24 h, FIG. 2
Method: (§4) Wistar rats (150-200 gm) were used to isolate bone marrow (BM). Rats were sacrificed and their femurs were removed aseptically. The bone marrow (BM) was flushed from the shaft of the bone by clipping of the epiphysial ends and flushing using a 26-gauge needle with ˜2 ml of Dulbecco's Modified Eagle's medium (DMEM) supplemented with 5% FBS, 1% penicillin/streptomycin solution, 1% sodium pyruvate and L-glutamine. The BM was then centrifuged for 8 minutes at 1000 rpm. Following centrifugation, cell pellet was collected and 1 ml of fresh DMEM was added. The cell viability was checked using trypan blue exclusion method. The cells were then divided into three equal parts. One part was co-cultured with freshly isolated hippocampal cells in T75 cm^2 flask, 2nd with freshly isolated cortical cells and the third portion (BM cells only) was cultured as a control. The cell density for co-cultures was set at 140,000 cells/ml for each type of culture. The cultured flasks were then incubated at 37° C. and 5% CO2. After 4-5 days, floating hematopoietic cells and dead debris/tissues of hippocampus and cortex were removed and bone marrow stromal cells (BMSCs) were recovered due to their tendency to adhere. Medium was replaced after every 3 to 4 days till cells became 80-90% confluent.
as §2

[2] = system: co-cultured cortical (CTX-CoCul) cells; test: as above; conditions: 24 h, FIG. 2
Method: as §4, §2

[3] = hippocampal cells treated for 24 h

## CC(=O)C=C1C=C(C)CC(C)(C)C1 (mixture of isomers) [isoxylitones]
Hippocampal (HP) cells; [3]
  effect on morphology: without any significant change in morphology
  proliferation (phase contrast photomicrographs): increased proliferation
Hippocampal (HP) cells; treated for 24 h
  proliferation of treated hippocampal cells compared to cortical cells: higher proliferation as compared to cortical cells
Cortical (CTX) cells
  effect on morphology: without any significant change in morphology
  proliferation (phase contrast photomicrographs): increased proliferation
Cocul-CTX cells
  BrdU positive cells: increased BrdU positive cells
Cocul-HP cells
  BrdU positive cells: significantly elevated the BrdU positive cells
[1]; HP-CoCul cells
  number of proliferating cells: Marked increase
  variation in morphology: no significant variation in the morphology
[1]; co-cultured cells
  rate of proliferation in hippocampus cells as compared to cortical cells: almost double
[2]
  number of proliferating cells: Marked increase
  variation in morphology: no significant variation in the morphology

— patent US11065211B2, “Isoxylitones mediated neurogenesis” (priority 2018, dated 2021)
